The record followed here is US20140194528A1, “USAGE OF SODIUM HOUTTUYFONATE ON INHIBITING IDIOPATHIC PULMONARY FIBROSIS AND BLEOMYCIN INDUCED PULMONARY FIBROSIS” (Hong Kong Baptist University, priority 2013, published 2014).

Data set [1] deals with BLM induced pulmonary fibrosis mice model. Kind of data set: Bleomycin (BLM) induced pulmonary fibrosis mice model, treatment with SH or PA. In kind it is in vivo, Kunming mice. To be noted: for lung inflammatory cell infiltration and collagen deposition (H&E staining): 7th, SH both high (90 mg/kg) and low (45 mg/kg) concentrations (FIG. 2); for lung inflammatory cell infiltration and collagen deposition (H&E staining) / lung/body weight ratio: 14th and 28th day; for lung/body weight ratio: SH oral once a day, p<0.05 / p<0.01 vs BLM group (FIG. 1); for hydroxyproline production in lung tissue: 28th day samples, p<0.05 / p<0.01 vs BLM group (FIG. 3C); for deposition of collagens (Sirius Red staining, polarized light): all sample collection time points (7th, 14th, 28th day), SH 90 and 45 mg/kg (FIG. 3A); for collagen I/III ratio: all time points (FIG. 3B). The method, then: Kunming mice were obtained from Shanghai Experimental Animal Center, Chinese Academy of Sciences. The animals were housed in stainless steel metabolite cages and observed under a 12 hours light-12 hours dark cycle in a well-ventilated room at 23° C±2° C. They were fed with standard pellet food and tap water ad libitum. The study was approved by the Animal Care and Use Committee of Shanghai University of Traditional Chinese Medicine, and was performed in accordance with the National Institute of Health guidelines for the care and handling of animals.
One hundred and twenty mice (male, 8 weeks old, 18-22 g) were randomly divided into the following 5 groups: sham control operation group (Control); BLM treatment group (BLM); prednisone acetate treatment group (BLM+PA); high concentration SH treatment group (BLM+SH High); and low concentration SH treatment group (BLM+SH Low). In the control group, mice received 1 ml/kg 0.9% sterile saline intratracheally under pentobarbital sodium anesthesia. In the BLM group, mice received a single dose of BLM intratracheally (5 mg in 1 ml sterile saline/body weight (kg)). The control and BLM groups received saline (oral, 5 ml/body weight (kg)) once a day for 4 weeks after BLM injection. We selected the doses of SH based on our previous report and small-scale preliminary experiments. We employed two different administration concentrations. SH was administered orally once a day to both the high (90 mg/kg) and low (45 mg/kg) concentration SH groups. On the 7th, 14th or 28th day, the mice were anesthetized with pentobarbital sodium (50 mg/kg) intraperitoneally.
The lungs were immersed in buffered formalin (10%) for 48 h, then embedded in paraffin and sliced (5 μm) and stained with H&E, or Sirius red. Each sample slice was photographed (x200 magnification) under the microscope (Olympus BX51, 167 Japan). All photos were analyzed with the image-Pro Plus 6.3 analyzing software (Media Cybernetics, Bethesda, Md. USA) by computer. Type I and type III collagen accumulation in the interstitial space of the lung was assessed by polarized light microscopy. Type I or type III collagen volume fraction (CVF) was also determined with Image-Pro 6.3 analyzing software.
All values were expressed as mean±standard deviation (SD). Statistical analysis was performed by one-way analysis of variance for multiple comparisons, followed by Student-Newman-Keuls test to evaluate the difference between two groups. Values of p<0.05 were considered statistically significant for all analyses.

The next data set relates to mice lung. The data set can be described thus: Small-scale preliminary experiments with two dosages of BLM in mice. In kind it is in vivo. The method, then: Two different dosages of BLM (2.5 mg/kg, 5mg/kg) were given to 10 mice (5 mice for each group) for small-scale preliminary experiments. On the 7th and 14th day, the mice were anesthetized with pentobarbital sodium (50 mg/kg) intraperitoneally. […]. […] Therefore, 5 mg of BLM in 2.5 ml sterile saline/body weight (kg) was used to generate BLM induced pulmonary fibrosis mice model. In the BLM group, mice received a single dose of BLM. After the instillation of saline or BLM, the lung/body weight ratio were obtained on the 7th, 14th, and 28th day. […] Both PA and SH reduced the lung/body weight ratio on the 14th and 28th day in BLM mice (*p<0.05, **p<0.01). Meanwhile, there was no significant difference in body weight among all groups.

Regarding `CC(=O)OCC(=O)[C@@]1(O)CC[C@H]2[C@@H]3CCC4=CC(=O)C=C[C@]4(C)[C@H]3C(=O)C[C@@]21C` [PA, prednisone acetate], in data set [1] (BLM mice), the “lung inflammatory cell infiltration and collagen deposition (H&E staining)” value is reported as “reduced”; the lung/body weight ratio result was “reduced”; the “hydroxyproline production in lung tissue” value is on record as “suppressed”; the “deposition of collagens (Sirius Red staining, polarized light)” value is on record as “reduced”. For the same molecule, the “collagen I/III ratio” value in data set [1] (BLM+PH group) was “low collagen I/III ratios”.
On to `CCCCCCCCCC(=O)CC(O)S(=O)(=O)O` (stereo not shown) [SH, Sodium Houttuyfonate], for which, in data set [1] (BLM mice), the “cytokine (IL-1β, IL-6 and TNF-α) production in lung tissues” value is “inhibit”; the “lung inflammatory cell infiltration and collagen deposition (H&E staining)” value was “reduced”; the lung/body weight ratio entry is “reduced”; the “hydroxyproline production in lung tissue” value is “suppressed”. For the same molecule, the “deposition of collagens (Sirius Red staining, polarized light)” value in data set [1] (BLM mice) is given as “reduced”. Further, the body weight entry in data set [1] (BLM mice, higher dose of SH) is reported as “without adversely affecting the body weight”. The “collagen I/III ratio” value in data set [1] (BLM+SH High (90 mg/kg)) is listed as “low collagen I/III ratios”. The “collagen I/III ratio” value in data set [1] (BLM+SH Low (45 mg/kg)) is “low collagen I/III ratios”.
Take Bleomycin [BLM]: in the data set with mice lung (BLM 2.5 mg/kg, 7th and 14th day (data not shown)), the “pathological change of lung” value is given as “not significant”. The death result with mice lung (BLM 5 mg/kg) was “no death”. Also, the “lung tissue histological examination” value with mice lung (BLM 5 mg/kg, 7th and 14th day) is given as “showed the fibrotic morphology”.
